Measurements reported in patent US20220389359A1, “USE OF PERFLUORO-N-OCTANE FOR PIEZO-MEDIATED INTRACYTOPLASMIC SPERM INJECTION” (priority 2019, published 2022).
“Also recorded” adds a separate entry of the source.

Assays:
[1] = system: 2PN (two pronuclei) mouse embryos; assay: Mouse embryo development after incubation in fluorinated compounds; type: cell-based; settings: for Mean T2 to T3 (mean time from 2-cell stage to 3-cell stage) / # embryos showing degeneration / Pace of embryo development compared to untreated control embryos / Mean T2 (mean time taken to reach the 2-cell stage): incubated 3 minutes in compound; for # embryos showing degeneration / Pace of embryo development compared to untreated control embryos: cultured 5 days; for Mean T2 (mean time taken to reach the 2-cell stage): embryos that reached 2-cell stage; for # 2-cell stage / # 3-cell stage / # expanded blastocyst / # hatching/hatched blastocyst: number of embryos; for # 2-cell stage / # 3-cell stage / # expanded blastocyst / # hatching/hatched blastocyst / # 2-cell stage (%) / # 3-cell stage (%) / # expanded blastocyst (%) / # hatching/hatched blastocyst (%): incubated 3 minutes, within 5-day incubation; for # 2-cell stage (%) / # 3-cell stage (%) / # expanded blastocyst (%) / # hatching/hatched blastocyst (%): proportion of 2PN embryos
Description: The effects of incubation in different fluorinated compounds on embryo development were tested.
223 2PN (two pronuclei) mouse embryos were randomly divided into four groups: A) raw perfluoro-n-octane; B) a commercially available perfluorohydrocarbon mixture previously used as operating liquid for Piezo-ICSI; C) purified perfluoro-n-octane; and D) untreated control.
Embryos in groups A, B and C were incubated for 3 minutes in the respective compound then transferred to culture medium. Embryos in all groups were then cultured for 5 days in an incubator (37.5° C., relative 100% humidity, 5% CO2 in air).
The number of embryos in each group showing signs of degeneration was counted.
The number of embryos in each group reaching the 2-cell, 3-cell, expanded blastocyst and hatching/hatched blastocyst stages of development within the 5-day incubation was counted.
The mean time taken to reach the 2-cell stage (T2) by those embryos that did, and the mean time taken for those embryos to develop from the 2-cell stage to the 3-cell stage (T3) were measured.

[2] = system: oocytes; assay: Assisted reproduction using Piezo-ICSI with purified perfluoro-n-octane operating liquid compared to c-ICSI; type: in vivo, human; settings: Piezo-ICSI with purified perfluoro-n-octane as operating liquid
Description: The efficacy of assisted reproduction using c-ICSI was compared to using Piezo-ICSI was compared. Purified perfluoro-n-octane was used as operating liquid for Piezo-ICSI.
In particular, 69 patients having at least 6 mature oocytes were randomly divided into two groups. The first group underwent assisted reproduction in which sperm was introduced into oocytes using c-ICSI. The second group underwent assisted reproduction in which sperm was introduced into oocytes using Piezo-ICSI.
c-ICSI was performed using Eppendorf 2K control with ICSI micropipettes (TPC, Cooper Surgical). Piezo-ICSI was performed using PMM and Piezo micropipettes (Primetech). Purified perfluoro-n-octane was used as operating liquid in Piezo-ICSI.

[3] = 25° C.; cited from earlier work

| Compound | Mean T2 to T3 (mean time from 2-cell stage to 3-cell stage) [1] [min] | # embryos showing degeneration [1] | Pace of embryo development compared to untreated control embryos [1] | Mean T2 (mean time taken to reach the 2-cell stage) [1] [min] | # 2-cell stage [1] | # 3-cell stage [1] | # expanded blastocyst [1] | # hatching/hatched blastocyst [1] | # 2-cell stage (%) [1] | # 3-cell stage (%) [1] | # expanded blastocyst (%) [1] [%] | # hatching/hatched blastocyst (%) [1] [%] | Additional embryos for vitrification on average compared to c-ICSI [2] | Average number of embryos for vitrification ([2]; c-ICSI 2.7) | Oocyte degeneration rate ([2]; c-ICSI 10.2%) [%] | Utilisation rate ([2]; c-ICSI 45.6%) [%] | Clinical pregnancy rate ([2]; c-ICSI 50%) [%] | Fertilization rate (oocytes successfully fertilised) ([2]; c-ICSI 65.9%, p<0.05) [%] | Surface tension [3] [mN/m] | Vapour pressure [3] [mbar] |
| --- | --- | --- | --- | --- | --- | --- | --- | --- | --- | --- | --- | --- | --- | --- | --- | --- | --- | --- | --- | --- |
| FC(F)(F)C(F)(F)C(F)(F)C(F)(F)C(F)(F)C(F)(F)C(F)(F)C(F)(F)F [raw perfluoro-n-octane, perfluoro-n-octane] | 1518 | 0 | developed more slowly than control embryos | 1394 | 52 | 45 | 36 | 9 | (95%) | (82%) | 65 | 16 | – | – | – | – | – | – | – | – |
| FC(F)(F)C(F)(F)C(F)(F)C(F)(F)C(F)(F)C(F)(F)C(F)(F)C(F)(F)F [purified perfluoro-n-octane, perfluoro-n-octane] | 1293 | 0 | developed at a pace comparable to untreated control embryos; also recorded: does not negatively affect embryo development | 1304 | 51 | 48 | 45 | 33 | (93%) | (87%) | 82 | 60 | 1 | 3.8 | 3.8 | 47.3 | 55 | 80.6 | – | – |
| FC(F)(F)C(F)(F)C(F)(F)C(F)(F)C(F)(F)C(F)(F)C(F)(F)C(F)(F)F [perfluoro-n-octane, 1,1,1,2,2,3,3,4,4,5,5,6,6,7,7,8,8,8-octadecafluorooctane] | – | none | – | – | – | – | – | – | – | – | – | – | – | – | – | – | – | – | 16 | 3.4 |
